In patent publication US11932595B2, “VDR-silent vitamin D derivative as inhibitors of SREBP and pharmaceutical use thereof” (KYOTO UNIVERSITY, priority 2020, dated 2024):

Key:
SREBP-responsive genes = assay: Short-term in vivo model (fasting/refeeding): hepatic mRNA of SREBP-responsive genes by real-time PCR; set-up: species or system mice; conditions: for hepatic expression of SREBP-response genes ACC1 and FASN versus vehicle: 10 mg/kg intraperitoneally once every 24 hours, fasted 48 h/refed 48 h, n=3, FIG. 5C
Experimental: (§1) To quickly and simultaneously examine their SREBP inhibitory activity and VDR-derived calcemic activity in vivo, a short-term in vivo screening system of mice was established. With reference to the previous report (Horton, J. D. et al. Proc. Natl. Acad. Sci. U.S.A. 1998, 95, 5987-5992.), mice were fasted for 48 hours then refed a special diet (low fat, high carbohydrate diet, lacking in vitamin D) for 48 hours before sacrifice.
(§2) C57BL/6 and oh/oh mice were purchased from CLEA Japan and Charles River Japan, Inc., respectively. Animal experiments were carried out at the University of Tokyo and Charles River Laboratories. Low fat, high carbohydrate diet, lacking vitamin D was custom made by Research Diets, Inc. Compounds disclosed herein and 25(OH)D3 were dissolved in ethanol/Tween 20 (9:1) to obtain stock solution and then diluted 10-fold with PBS immediately before administration to mice.
(§3) 10 mg/kg compounds or vehicle control were administered intraperitoneally once every 24 hours during the fasting and refeeding.
Relative mRNA levels of SREBP-responsive genes were determined by real-time PCR in the livers obtained from the mice with free access to a normal diet or fasted and refed a special diet (means SEM, n=3 per group), *p<0.05.
Expression levels of SREBP-responsive genes were determined by real-time PCR in the livers obtained from the mice treated with indicated compounds (10 mg/kg) according to the protocol illustrated in FIG. 5A. Data are expressed as relative expression to the mean value of vehicle-treated mouse liver (means±SEM, n=3 per group), *p<0.05 (FIG. 5C).
Relative mRNA levels of SREBP-responsive genes were determined by real-time PCR in the livers obtained from the indicated mice Data are means±SEM (fed mice, n=3; others, n=6), *p<0.05 (FIG. 5E).

VDR = VDR reporter assay (Cignal Vitamin D Receptor Reporter) in CHO-K1 cells; assay type: cell-based; conditions: 5 μM compound, lipid-free medium, FIGS. 2 and 4
Experimental: (§4) Cell Culture: CHO-K1 cells were maintained in medium A (1:1 mixture of Ham's F-12 medium and DMEM, supplemented with 100 units/mL penicillin, 100 μg/mL streptomycin sulfate, and 5% [v/v] fetal bovine serum) at 37° C. in a humidified 5% CO2 incubator.
(§5) CHO-K1 cells were seeded into 96-well plates at 8×10^3 cells per well in medium A and incubated for 24 h. For SREBP reporter assay, cells were co-transfected with an SRE-1-driven luciferase reporter plasmid (pSRE-Luc) and an actin promoter-driven β-galactosidase expression plasmid (pAc-13-gal) at a 20:1 ratio, using FuGENE HD Transfection Reagent (Promega) according to the manufacturer's protocol.
For VDR reporter assay, Cignal Vitamin D Receptor Reporter (QIAGEN) was transfected instead of pSRE-Luc.
(§6) After 20 h, the medium was changed to medium B (1:1 mixture of Ham's F-12 medium and DMEM, supplemented with 100 units/mL penicillin, 100 μg/mL streptomycin sulfate, 5% [v/v] lipid-depleted serum, 50 μM compactin (Tokyo Chemical Industry), and 50 μM lithium mevalonate (Sigma-Aldrich) containing the specific test compounds. After 24 h incubation, the cells in each well were lysed with 100 μL of 1× Reporter Lysis Buffer (Promega), and 50 μL of aliquots were used to measure luciferase and 13-gal activities. Luciferase activity was measured using the Steady-Glo Luciferase Assay System (Promega), and 13-gal activity was measured using the 13-Galactosidase Enzyme Assay System (Promega). Luciferase activity was normalized to 13-gal activity.
For the VDR assay, CHO-K1 cells were treated with 5 μM of the compounds in a lipid-free medium. The same experiment using 25(OH)D3 (1) was performed as control. Values are mean±SD.

SREBP = SREBP luciferase reporter assay (pSRE-Luc) in CHO-K1 cells; assay type: cell-based; conditions: for SREBP inhibitory activity (expression of SREBP-responsive luciferase reporter gene): CHO-K1 cells, 5 μM compound, lipid-free medium, 24 h, FIGS. 1 and 3
Experimental: as §4, §5, §6
[…] The same experiment using of 25(OH)D3 (1) was performed as control. Values are mean±SD.

[1] = Short-term in vivo model: serum calcium levels; set-up: species or system mice; conditions: 10 mg/kg intraperitoneally, after 4 days, n=3, FIG. 5D
Experimental: as §1, §2, §3
Following sacrifice, mouse livers were fixed in 10% neutral-buffered formalin, embedded in paraffin, sectioned, and stained with H&E. Hepatic lipids were extracted with chloroform/methanol (2:1 v/v), and TG and cholesterol contents were measured with Triglyceride Reagent Set (Pointe Scientific) and Cholesterol E (Wako), respectively. Serum levels of ALT, TG, glucose, cholesterol, and calcium were measured in SRL Inc. (Tokyo). All experiments were approved by the Ethics Committee for Animal Experimentation of the University of Tokyo and Charles River Laboratories Japan, and were conducted in accordance with the Guidelines for the Care and Use of Laboratory Animals.
Serum calcium levels in the mice treated with vehicle, compounds, or 25(OH)D3 were determined (means±SEM, n=3 per group), *p<0.05 (FIG. 5D).

SREBP/SCAP = conditions: Nagata, ACS Chem. Biol. 2019; cited from earlier work
[2] = cited from earlier work
[3] = Maynard et al. J Med. Chem. 1994; cited from earlier work

Compound | VDR activity (VDR reporter activation) (VDR) | SREBP inhibitory activity (expression of SREBP-responsive luciferase reporter gene) (SREBP) | further results
C[C@H](CCCC(O)(C(F)(F)F)C(F)(F)F)[C@H]1CC[C@H]2/C(=C/Cn3cc(-c4ccc(F)cc4)nn3)CCC[C@]12C [Compound 39, (R)-1,1,1-Trifluoro-6-[(1R,3aS,7aR,E)-4-{2-[4-(4-fluorophenyl)-1H-1,2,3-triazol-1-yl]ethylidene}-7a-methyloctahydro-1H-inden-1-yl]-2-(trifluoromethyl)heptan-2-ol] | lacked in VDR activity | maintained SREBP inhibitory activities | hepatic expression of SREBP-response genes ACC1 and FASN versus vehicle (SREBP-responsive genes): significantly suppressed; serum calcium levels [1]: elevated levels of serum calcium
C[C@H](CCC(F)(F)C(C)(C)O)[C@H]1CC[C@H]2/C(=C/Cn3nnc(-c4ccc(F)cc4)n3)CCC[C@]12C [Compound 49, 3,3-Difluoro-6-[(1R,3aS,7aR,E)-4-{2-[5-(4-fluorophenyl)-2H-tetrazol-2-yl]ethylidene}-7a-methyloctahydro-1H-inden-1-yl]-2-methylheptan-2-ol] | lacked in VDR activity | maintained SREBP inhibitory activities | hepatic expression of SREBP-response genes ACC1 and FASN versus vehicle (SREBP-responsive genes): significantly suppressed; elevated hepatic expression of the three SREBP-responsive genes ACC1, FASN and SCD1 (SREBP-responsive genes; 10 mg/kg intraperitoneally, fasting/refeeding, FIG. 5C): mitigated the elevated expression; serum calcium levels [1]: no detectable increase
C[C@H](CCCC(C)(C)O)[C@H]1CC[C@H]2/C(=C/Cn3cc(CCCCO)nn3)CCC[C@]12C [Compound 29, 6-[(1R,3aS,7aR,E)-4-{2-[4-(4-Hydroxybutyl)-1H-1,2,3-triazol-1-yl]ethylidene}-7a-methyloctahydro-1H-inden-1-yl]-2-methylheptan-2-ol] | detectable VDR activity | – | –
C[C@H](CCCC(C)(C)O)[C@H]1CC[C@H]2/C(=C/Cn3cnnn3)CCC[C@]12C [Compound 21, (R)-6-{(1R,3aS,7aR,E)-4-[2-(1H-Tetrazol-1-yl)ethylidene]-7a-methyloctahydro-1H-inden-1-yl}-2-methylheptan-2-ol] | detectable VDR activity | – | –
C[C@H](CCCC(C)(C)O)[C@H]1CC[C@H]2/C(=C/C(=O)N3CCOCC3)CCC[C@]12C [Compound 20, 2-{(1R,3aS,7aR,E)-1-[(R)-6-Hydroxy-6-methylheptan-2-yl]-7a-methyloctahydro-4H-inden-4-ylidene}-1-morpholinoethan-1-one] | – | little effect | –
C[C@H](CCC(F)(F)C(C)(C)O)[C@H]1CC[C@H]2/C(=C/Cn3nnnc3-c3ccc(F)cc3)CCC[C@]12C [Compound 51, (R)-3,3-Difluoro-6-[(1R,3aS,7aR,E)-4-{2-[5-(4-fluorophenyl)-1H-tetrazol-1-yl]ethylidene}-7a-methyloctahydro-H-inden-1-yl]-2-methylheptan-2-ol] | lacked in VDR activity | maintained SREBP inhibitory activities | –
C[C@H](CCC(F)(F)C(C)(C)O)[C@H]1CC[C@H]2/C(=C/Cn3cc(-c4ccc(F)cc4)nn3)CCC[C@]12C [Compound 47, (R)-3,3-Difluoro-6-[(1R,3aS,7aR,E)-4-{2-[4-(4-fluorophenyl)-1H-1,2,3-triazol-1-yl]ethylidene}-7a-methyloctahydro-1H-inden-1-yl]-2-methylheptan-2-ol] | lacked in VDR activity | maintained SREBP inhibitory activities | –
C[C@H](CCCC(C)(C)O)[C@H]1CC[C@H]2/C(=C/Cn3cc(-c4ccccn4)nn3)CCC[C@]12C [Compound 26, (R)-2-Methyl-6-[(1R,3aS,7aR,E)-7a-methyl-4-{2-[4-(pyridin-2-yl)-1H-1,2,3-triazol-1-yl]ethylidene}octahydro-1H-inden-1-yl]heptan-2-ol] | detectable VDR activity | – | –
C[C@H](CCCC(C)(C)O)[C@H]1CC[C@H]2/C(=C/C(=O)N3CCCCC3)CCC[C@]12C [Compound 19, 2-{(1R,3 aS,7 aR,E)-1-[(R)-6-Hydroxy-6-methylheptan-2-yl]-7a-methyloctahydro-4H-inden-4-ylidene}-1-(piperidin-1-yl)ethan-1-one] | – | little effect | –
Cc1ccc(S(=O)(=O)N[C@@H]2C/C(=C/C=C3\CCC[C@]4(C)[C@@H]([C@H](C)CCCC(O)(C(F)(F)F)C(F)(F)F)CC[C@@H]34)C[C@@H](F)C2)cc1 [Compound 3] | – | – | effect on SREBP/SCAP and VDR activity in cultured cells (SREBP/SCAP): selectively impaired SREBP/SCAP without eliciting VDR activity; calcemic activity in vivo ([2]; high doses): residual calcemic activity; bioavailability ([2]; in vivo): low
C[C@H](CCCC(C)(C)O)[C@H]1CC[C@H]2/C(=C/Cn3ncnn3)CCC[C@]12C [Compound 22] | detectable VDR activity | – | –
C[C@H](CCCC(O)(C(F)(F)F)C(F)(F)F)[C@H]1CC[C@H]2/C(=C/Cn3cc(-c4ccccc4)nn3)CCC[C@]12C [Compound 38, (R)-1,1,1-Trifluoro-6-{(1R,3aS,7aR,E)-7a-methyl-4-[2-(4-phenyl-1H-1,2,3-triazol-1-yl)ethylidene]octahydro-1H-inden-1-yl}-2-(trifluoromethyl)heptan-2-ol] | – | – | hepatic expression of SREBP-response genes ACC1 and FASN versus vehicle (SREBP-responsive genes): significantly suppressed; serum calcium levels [1]: elevated levels of serum calcium
CC1=C(/C=C\C2=CCC[C@@]3(C)[C@@H]2CC[C@@H]3[C@H](C)CCCC(C)(C)O)C[C@@H](O)C[C@@H]1O [14-epi-25(OH) D3, reference compound] | – | – | calcemic action [3]: markedly decreased calcemic action; expression of an SREBP-responsive luciferase reporter (SREBP; screening of in-house collection, data not shown): comparable level to 25(OH)D3
